Results: PubChem BioAssay (NCI)
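Step 1: Grow cells in 96-well plates. Step 2: Expose to compound for 48 hours at 5 concentrations. Step 3: Interpolate endpoints linearly; if unreached, use highest concentration. At the GI50, growth is halved. The concentration for full growth arrest is given as TGI.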

Tests used:
Assay in all cases: growth of human tumour cells (NCI), 48 h
TK-10 renal = system: TK-10 renal
786-0 renal = system: 786-0 renal
OVCAR-4 ovarian = system: OVCAR-4 ovarian
HT29 colon = system: HT29 colon
EKVX NSCLC = system: EKVX NSCLC
M14 melanoma = system: M14 melanoma
MCF7 breast = system: MCF7 breast
SK-MEL-28 melanoma = system: SK-MEL-28 melanoma
MDA-MB-435 = system: MDA-MB-435
NCI-H460 lung = system: NCI-H460 lung
IGROV1 ovarian = system: IGROV1 ovarian
UACC-62 melanoma = system: UACC-62 melanoma
SW-620 colon = system: SW-620 colon
KM12 colon = system: KM12 colon
MDA-MB-231 breast = system: MDA-MB-231 breast
ACHN renal = system: ACHN renal
NCI/ADR-RES ovarian = system: NCI/ADR-RES ovarian
HS 578T breast = system: HS 578T breast
PC-3 prostate = system: PC-3 prostate
SF-268 CNS = system: SF-268 CNS
U251 CNS = system: U251 CNS
HOP-92 NSCLC = system: HOP-92 NSCLC
SF-539 CNS = system: SF-539 CNS
SNB-19 CNS = system: SNB-19 CNS
RXF 393 renal = system: RXF 393 renal
RPMI-8226 leukemia = system: RPMI-8226 leukemia
NCI-H226 lung = system: NCI-H226 lung
CCRF-CEM leukemia = system: CCRF-CEM leukemia
CAKI-1 renal = system: CAKI-1 renal
HOP-62 NSCLC = system: HOP-62 NSCLC
SF-295 CNS = system: SF-295 CNS
OVCAR-8 ovarian = system: OVCAR-8 ovarian
UACC-257 melanoma = system: UACC-257 melanoma
HCT-15 colon = system: HCT-15 colon
NCI-H23 lung = system: NCI-H23 lung
HCT-116 colon = system: HCT-116 colon
SNB-75 CNS = system: SNB-75 CNS
SK-MEL-5 melanoma = system: SK-MEL-5 melanoma
COLO 205 colon = system: COLO 205 colon
NCI-H522 lung = system: NCI-H522 lung
OVCAR-5 ovarian = system: OVCAR-5 ovarian
MALME-3M melanoma = system: MALME-3M melanoma
UO-31 renal = system: UO-31 renal
DU-145 prostate = system: DU-145 prostate
HCC-2998 colon = system: HCC-2998 colon
SN12C renal = system: SN12C renal
BT-549 breast = system: BT-549 breast
A549 NSCLC = system: A549 NSCLC
LOX IMVI melanoma = system: LOX IMVI melanoma
T-47D breast = system: T-47D breast
OVCAR-3 ovarian = system: OVCAR-3 ovarian
SK-OV-3 ovarian = system: SK-OV-3 ovarian

Compound: CO/N=C(\COc1ccc2c(c1)[nH]c1ccccc12)c1ccc(F)cc1
- GI50 (TK-10 renal): 25.9 µM
- TGI (TK-10 renal): > 100 µM
- GI50 (786-0 renal): 16.8 µM
- TGI (786-0 renal): > 100 µM
- GI50 (OVCAR-4 ovarian): 26.1 µM
- TGI (OVCAR-4 ovarian): > 100 µM
- GI50 (HT29 colon): > 100 µM
- TGI (HT29 colon): > 100 µM
- GI50 (EKVX NSCLC): 65.9 µM
- TGI (EKVX NSCLC): > 100 µM
- GI50 (M14 melanoma): > 100 µM
- TGI (M14 melanoma): > 100 µM
- GI50 (MCF7 breast): > 100 µM
- TGI (MCF7 breast): > 100 µM
- GI50 (SK-MEL-28 melanoma): > 100 µM
- TGI (SK-MEL-28 melanoma): > 100 µM
- GI50 (MDA-MB-435): > 100 µM
- TGI (MDA-MB-435): > 100 µM
- GI50 (NCI-H460 lung): > 100 µM
- TGI (NCI-H460 lung): > 100 µM
- GI50 (IGROV1 ovarian): 77.3 µM
- TGI (IGROV1 ovarian): > 100 µM
- GI50 (UACC-62 melanoma): 95.9 µM
- TGI (UACC-62 melanoma): > 100 µM
- GI50 (SW-620 colon): > 100 µM
- TGI (SW-620 colon): > 100 µM
- GI50 (KM12 colon): > 100 µM
- TGI (KM12 colon): > 100 µM
- GI50 (MDA-MB-231 breast): 20.1 µM
- TGI (MDA-MB-231 breast): > 100 µM
- GI50 (ACHN renal): 35.7 µM
- TGI (ACHN renal): > 100 µM
- GI50 (NCI/ADR-RES ovarian): 51.8 µM
- TGI (NCI/ADR-RES ovarian): > 100 µM
- GI50 (HS 578T breast): 23.4 µM
- TGI (HS 578T breast): > 100 µM
- GI50 (PC-3 prostate): 30.6 µM
- TGI (PC-3 prostate): > 100 µM
- GI50 (SF-268 CNS): > 100 µM
- TGI (SF-268 CNS): > 100 µM
- GI50 (U251 CNS): 25.4 µM
- TGI (U251 CNS): > 100 µM
- GI50 (HOP-92 NSCLC): 13.7 µM
- TGI (HOP-92 NSCLC): 55.2 µM
- GI50 (SF-539 CNS): > 100 µM
- TGI (SF-539 CNS): > 100 µM
- GI50 (SNB-19 CNS): 30 µM
- TGI (SNB-19 CNS): > 100 µM
- GI50 (RXF 393 renal): 27.6 µM
- TGI (RXF 393 renal): > 100 µM
- GI50 (RPMI-8226 leukemia): 43.9 µM
- TGI (RPMI-8226 leukemia): > 100 µM
- GI50 (NCI-H226 lung): > 100 µM
- TGI (NCI-H226 lung): > 100 µM
- GI50 (CCRF-CEM leukemia): 22.6 µM
- TGI (CCRF-CEM leukemia): 53.9 µM
- GI50 (CAKI-1 renal): > 100 µM
- TGI (CAKI-1 renal): > 100 µM
- GI50 (HOP-62 NSCLC): 6.44 µM
- TGI (HOP-62 NSCLC): 26.7 µM
- GI50 (SF-295 CNS): 30.1 µM
- TGI (SF-295 CNS): > 100 µM
- GI50 (OVCAR-8 ovarian): 10.4 µM
- TGI (OVCAR-8 ovarian): > 100 µM
- GI50 (UACC-257 melanoma): 48.7 µM
- TGI (UACC-257 melanoma): > 100 µM
- GI50 (HCT-15 colon): > 100 µM
- TGI (HCT-15 colon): > 100 µM
- GI50 (NCI-H23 lung): > 100 µM
- TGI (NCI-H23 lung): > 100 µM
- GI50 (HCT-116 colon): 20.6 µM
- TGI (HCT-116 colon): > 100 µM
- GI50 (SNB-75 CNS): 9.17 µM
- TGI (SNB-75 CNS): 89.6 µM
- GI50 (SK-MEL-5 melanoma): > 100 µM
- TGI (SK-MEL-5 melanoma): > 100 µM
- GI50 (COLO 205 colon): > 100 µM
- TGI (COLO 205 colon): > 100 µM
- GI50 (NCI-H522 lung): > 100 µM
- TGI (NCI-H522 lung): > 100 µM
- GI50 (OVCAR-5 ovarian): > 100 µM
- TGI (OVCAR-5 ovarian): > 100 µM
- GI50 (MALME-3M melanoma): 22.8 µM
- TGI (MALME-3M melanoma): > 100 µM
- GI50 (UO-31 renal): > 100 µM
- TGI (UO-31 renal): > 100 µM
- GI50 (DU-145 prostate): > 100 µM
- TGI (DU-145 prostate): > 100 µM
- GI50 (HCC-2998 colon): > 100 µM
- TGI (HCC-2998 colon): > 100 µM
- GI50 (SN12C renal): > 100 µM
- TGI (SN12C renal): > 100 µM
- GI50 (BT-549 breast): > 100 µM
- TGI (BT-549 breast): > 100 µM
- GI50 (A549 NSCLC): 29.6 µM
- TGI (A549 NSCLC): > 100 µM
- GI50 (LOX IMVI melanoma): > 100 µM
- TGI (LOX IMVI melanoma): > 100 µM
- GI50 (T-47D breast): > 100 µM
- TGI (T-47D breast): > 100 µM
- GI50 (OVCAR-3 ovarian): 10.6 µM
- TGI (OVCAR-3 ovarian): > 100 µM
- GI50 (SK-OV-3 ovarian): 28.7 µM
- TGI (SK-OV-3 ovarian): > 100 µM
